Consider one molecule from patent US10364230B2, “Chromene-2 derivatives and use thereof in the treatment of fibrosis” (ALTAY THERAPEUTICS, INC., priority 2014, dated 2019).

Test [1] relates to TGFbeta-induced collagen synthesis in L929 cells. Kind of test: TGFbeta-induced total collagen synthesis in L929 cells (sircol dye). The conditions noted are these: 50 micromole CP1 for 1 hour, then 5 ng/ml Mouse TGFβ2, 72 hours, FIG. 1. The class given is cell-based. The source says: (§1) The present invention is about novel compounds which may offer alternative treatment options against IPF, which believed to develop as a consequences of smoking, pollution, allergens, toxins and seen in people who are older than 50 years old. The compounds mentioned in this application have been generated from “6,7-dimethoxy 2H-chromen-one (1), which was identified from local medicinal plants during our screening studies. The anti-fibrotic activity of this compound (“6,7-dimethoxy 2H-chromen-one (I) against TGF beta-induced collagen synthesis using 1.929 cells has been identified. For this, in 96-well plates, 1.929 cells were cultured in DMEM supplemented with % 10 serum, 10 μg/ml ascorbic acid and 20 μM prolin until they reached to confluency. Confluent cells were treated with 50 micromole of our compound (named as CP1) dissolved in DMSO for 1 hour, then 5 ng/ml of Mouse TGFβ2 was added and cells were further incubated for 72 hours at incubator supplied with 5% CO2 and 80% humidity. At the end of this incubation one of the plate was used to determine cell viability by using MTT test, FIG. 2. The second 96-well plate was used to determine the level of total collagen. […] Absorbance of developed color was determined at 600 nm. […] In addition to total collagen, we also determined the level of “secreted collagen” by using ELISA. […]

In test [2] the test system is TGFbeta-induced secreted collagen synthesis in L929 cells. As to the kind of experiment: TGFbeta-induced secreted collagen in L929 cells (anti-collagen type I ELISA). The class given is cell-based. To be noted: 50 micromole CP1, 5 ng/ml Mouse TGFβ2, 72 hours, culture supernatant, FIG. 3.
Excerpt: as §1
(In an ELISA, binding on a coated surface is turned into a signal by an enzyme label.)

Consider `COc1cc2ccc(=O)oc2cc1OC` [CP1, 6,7-dimethoxy 2H-chromen-2-one], for which the “TGFβ-induced collagen level in the presence of CP1, compared to control cells” value in test [1] (TGFβ alone induced % 20) was 10%. In addition, the “inhibition of TGFβ-induced collagen synthesis” value in test [1] (total collagen, sircol, absorbance 600 nm) came to 50%. Moreover, in test [2], the “effect on TGFβ-induced secreted collagen level” value was “significantly inhibits”.
